Measured values: article PMC4457528, “Identification of Novel Small Molecule Inhibitors of Oncogenic RET Kinase” (PLoS ONE, 2015)
Read-outs that look alike come from different tables or passages of the source.

Assays:
Assay in all cases: KinomeScan kinase panel, single concentration 10 µM
Assay type in all cases: binding
KinomeScan kinase panel [1] = molecular target: T1, KinomeScan kinase panel (Homo sapiens, UniProt P00519, Y253F); settings: 10 µM, read-out: score (%)
T1 construct: purchased DiscoveRx (KinomeScan)

KinomeScan kinase panel [2] = molecular target: T2, KinomeScan kinase panel (Homo sapiens, UniProt P21802); settings: FGFR2, 10 µM; read-out: score (%)
T2 construct: purchased DiscoveRx (KinomeScan)
T2 sequence (P21802 22-821): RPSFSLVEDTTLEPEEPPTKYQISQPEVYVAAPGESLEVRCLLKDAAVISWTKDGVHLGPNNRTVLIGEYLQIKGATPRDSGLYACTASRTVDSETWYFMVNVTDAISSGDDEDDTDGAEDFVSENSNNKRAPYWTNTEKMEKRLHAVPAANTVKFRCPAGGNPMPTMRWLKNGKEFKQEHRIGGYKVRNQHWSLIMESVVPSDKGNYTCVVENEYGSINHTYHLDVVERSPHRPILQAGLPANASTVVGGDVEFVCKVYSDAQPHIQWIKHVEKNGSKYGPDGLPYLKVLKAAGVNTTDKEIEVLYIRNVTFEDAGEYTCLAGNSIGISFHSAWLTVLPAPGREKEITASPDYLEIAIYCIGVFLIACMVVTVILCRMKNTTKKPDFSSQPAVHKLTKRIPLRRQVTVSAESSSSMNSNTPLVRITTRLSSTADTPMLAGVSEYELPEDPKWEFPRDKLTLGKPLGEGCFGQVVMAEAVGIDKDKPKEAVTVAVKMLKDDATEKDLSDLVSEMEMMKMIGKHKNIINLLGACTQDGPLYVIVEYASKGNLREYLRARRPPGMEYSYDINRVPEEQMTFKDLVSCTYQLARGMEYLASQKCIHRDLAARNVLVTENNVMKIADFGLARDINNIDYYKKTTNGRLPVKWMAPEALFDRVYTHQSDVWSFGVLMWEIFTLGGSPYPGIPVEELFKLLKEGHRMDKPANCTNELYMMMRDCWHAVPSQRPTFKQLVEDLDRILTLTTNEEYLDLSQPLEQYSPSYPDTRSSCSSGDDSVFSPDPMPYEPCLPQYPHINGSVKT

KinomeScan kinase panel [3] = molecular target: T3, KinomeScan kinase panel (Homo sapiens, UniProt Q8TD08); settings: ERK8, 10 µM; read-out: score (%)
T3 construct: purchased DiscoveRx (KinomeScan)
T3 sequence (Q8TD08 1-544): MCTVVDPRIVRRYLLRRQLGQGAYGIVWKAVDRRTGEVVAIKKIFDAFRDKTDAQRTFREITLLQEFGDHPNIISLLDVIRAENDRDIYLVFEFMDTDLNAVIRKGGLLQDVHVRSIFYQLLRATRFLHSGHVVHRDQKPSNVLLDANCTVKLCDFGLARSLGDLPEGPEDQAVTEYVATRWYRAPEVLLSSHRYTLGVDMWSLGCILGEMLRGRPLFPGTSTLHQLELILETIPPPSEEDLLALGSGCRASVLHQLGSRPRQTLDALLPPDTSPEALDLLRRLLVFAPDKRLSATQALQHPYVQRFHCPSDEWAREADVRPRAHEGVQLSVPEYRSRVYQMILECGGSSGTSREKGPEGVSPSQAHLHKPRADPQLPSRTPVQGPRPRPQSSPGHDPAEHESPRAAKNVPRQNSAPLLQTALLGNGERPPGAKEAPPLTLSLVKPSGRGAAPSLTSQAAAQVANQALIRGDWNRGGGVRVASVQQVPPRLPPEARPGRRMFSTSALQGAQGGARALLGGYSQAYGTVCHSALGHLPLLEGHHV

KinomeScan kinase panel [4] = molecular target: T4, KinomeScan kinase panel (Homo sapiens, UniProt O00444); settings: read-out: score (%)
T4 construct: purchased DiscoveRx (KinomeScan)
T4 sequence (O00444 1-970): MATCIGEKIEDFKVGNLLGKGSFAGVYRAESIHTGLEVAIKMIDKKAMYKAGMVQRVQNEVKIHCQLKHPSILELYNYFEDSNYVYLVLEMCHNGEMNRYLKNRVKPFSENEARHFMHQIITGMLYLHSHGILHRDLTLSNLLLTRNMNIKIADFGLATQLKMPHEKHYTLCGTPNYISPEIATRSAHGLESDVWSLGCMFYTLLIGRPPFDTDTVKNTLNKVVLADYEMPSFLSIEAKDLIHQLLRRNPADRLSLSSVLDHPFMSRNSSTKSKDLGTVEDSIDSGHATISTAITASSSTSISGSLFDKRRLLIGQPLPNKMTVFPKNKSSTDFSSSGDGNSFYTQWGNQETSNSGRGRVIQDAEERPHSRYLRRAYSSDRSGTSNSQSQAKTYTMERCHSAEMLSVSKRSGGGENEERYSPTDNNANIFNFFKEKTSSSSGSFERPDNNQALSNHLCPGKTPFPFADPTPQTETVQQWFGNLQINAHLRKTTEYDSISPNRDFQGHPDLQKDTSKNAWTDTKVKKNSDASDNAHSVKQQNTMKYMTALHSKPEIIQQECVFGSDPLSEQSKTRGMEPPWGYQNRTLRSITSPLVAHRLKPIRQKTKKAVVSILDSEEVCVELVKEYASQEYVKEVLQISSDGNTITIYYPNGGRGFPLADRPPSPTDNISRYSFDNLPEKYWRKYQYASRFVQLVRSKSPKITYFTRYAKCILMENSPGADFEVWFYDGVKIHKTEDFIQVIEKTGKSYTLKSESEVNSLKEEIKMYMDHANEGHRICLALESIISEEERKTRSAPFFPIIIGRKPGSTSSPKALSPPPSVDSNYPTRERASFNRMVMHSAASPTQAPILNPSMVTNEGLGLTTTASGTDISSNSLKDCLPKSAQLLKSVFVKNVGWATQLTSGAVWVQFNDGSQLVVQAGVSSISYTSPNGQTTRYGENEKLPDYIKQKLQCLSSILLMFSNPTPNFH

KinomeScan kinase panel [5] = molecular target: T5, KinomeScan kinase panel (Homo sapiens, UniProt P08581); settings: MET, 10 µM
T5 construct: purchased DiscoveRx (KinomeScan)
T5 sequence (P08581 25-1390): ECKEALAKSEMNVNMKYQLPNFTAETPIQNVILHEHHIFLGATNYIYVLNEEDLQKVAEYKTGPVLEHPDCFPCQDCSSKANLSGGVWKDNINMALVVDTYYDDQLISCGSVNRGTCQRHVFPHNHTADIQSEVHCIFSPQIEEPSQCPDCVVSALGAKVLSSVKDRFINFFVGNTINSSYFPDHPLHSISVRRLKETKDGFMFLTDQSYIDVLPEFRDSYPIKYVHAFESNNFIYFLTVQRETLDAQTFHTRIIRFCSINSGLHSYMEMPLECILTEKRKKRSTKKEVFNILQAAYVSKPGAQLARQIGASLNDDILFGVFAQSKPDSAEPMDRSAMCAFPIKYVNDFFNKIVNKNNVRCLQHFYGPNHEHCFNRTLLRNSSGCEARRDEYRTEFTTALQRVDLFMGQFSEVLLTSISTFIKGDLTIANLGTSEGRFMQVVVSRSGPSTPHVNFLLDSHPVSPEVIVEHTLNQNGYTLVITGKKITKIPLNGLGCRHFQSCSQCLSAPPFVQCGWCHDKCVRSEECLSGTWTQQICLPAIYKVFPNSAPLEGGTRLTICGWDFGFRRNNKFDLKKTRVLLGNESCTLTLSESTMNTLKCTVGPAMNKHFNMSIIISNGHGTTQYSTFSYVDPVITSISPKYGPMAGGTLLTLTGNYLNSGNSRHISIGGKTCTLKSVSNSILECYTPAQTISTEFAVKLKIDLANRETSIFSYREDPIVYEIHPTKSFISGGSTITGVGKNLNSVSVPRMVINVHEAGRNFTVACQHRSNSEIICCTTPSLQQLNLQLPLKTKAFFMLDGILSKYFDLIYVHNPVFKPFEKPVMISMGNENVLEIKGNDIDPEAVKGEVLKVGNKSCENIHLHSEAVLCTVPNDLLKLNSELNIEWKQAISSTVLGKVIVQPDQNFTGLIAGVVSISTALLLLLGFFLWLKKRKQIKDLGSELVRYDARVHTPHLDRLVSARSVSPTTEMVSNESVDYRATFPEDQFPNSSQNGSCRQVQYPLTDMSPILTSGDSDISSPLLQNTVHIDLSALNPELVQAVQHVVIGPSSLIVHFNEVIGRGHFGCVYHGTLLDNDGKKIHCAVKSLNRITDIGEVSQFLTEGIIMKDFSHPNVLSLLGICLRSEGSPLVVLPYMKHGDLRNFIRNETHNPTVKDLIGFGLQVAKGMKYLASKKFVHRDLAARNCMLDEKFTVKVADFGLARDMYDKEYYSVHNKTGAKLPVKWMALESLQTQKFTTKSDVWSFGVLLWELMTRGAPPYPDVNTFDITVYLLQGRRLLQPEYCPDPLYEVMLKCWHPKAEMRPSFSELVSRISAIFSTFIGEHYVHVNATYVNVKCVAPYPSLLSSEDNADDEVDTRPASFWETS

KinomeScan kinase panel [6] = molecular target: T6, KinomeScan kinase panel (Homo sapiens, UniProt Q92772); settings: CDKL2, 10 µM; read-out: score (%)
T6 construct: purchased DiscoveRx (KinomeScan)
T6 sequence (Q92772 1-493): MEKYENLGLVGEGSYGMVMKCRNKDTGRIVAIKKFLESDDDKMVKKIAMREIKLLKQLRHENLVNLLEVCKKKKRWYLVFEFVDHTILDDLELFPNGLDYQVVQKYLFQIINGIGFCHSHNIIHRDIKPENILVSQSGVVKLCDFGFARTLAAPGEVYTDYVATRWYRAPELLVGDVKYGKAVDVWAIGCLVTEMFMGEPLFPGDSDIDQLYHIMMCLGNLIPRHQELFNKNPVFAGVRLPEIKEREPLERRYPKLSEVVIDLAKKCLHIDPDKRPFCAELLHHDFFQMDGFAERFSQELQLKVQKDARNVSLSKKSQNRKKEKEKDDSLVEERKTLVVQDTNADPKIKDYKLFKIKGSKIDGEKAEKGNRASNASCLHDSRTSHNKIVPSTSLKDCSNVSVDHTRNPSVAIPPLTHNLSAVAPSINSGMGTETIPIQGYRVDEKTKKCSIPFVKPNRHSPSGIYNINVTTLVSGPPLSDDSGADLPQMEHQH

KinomeScan kinase panel [7] = molecular target: T7, KinomeScan kinase panel (Homo sapiens, UniProt P06241); settings: FYN, 10 µM; read-out: score (%)
T7 construct: purchased DiscoveRx (KinomeScan)
T7 sequence (P06241 whole entry): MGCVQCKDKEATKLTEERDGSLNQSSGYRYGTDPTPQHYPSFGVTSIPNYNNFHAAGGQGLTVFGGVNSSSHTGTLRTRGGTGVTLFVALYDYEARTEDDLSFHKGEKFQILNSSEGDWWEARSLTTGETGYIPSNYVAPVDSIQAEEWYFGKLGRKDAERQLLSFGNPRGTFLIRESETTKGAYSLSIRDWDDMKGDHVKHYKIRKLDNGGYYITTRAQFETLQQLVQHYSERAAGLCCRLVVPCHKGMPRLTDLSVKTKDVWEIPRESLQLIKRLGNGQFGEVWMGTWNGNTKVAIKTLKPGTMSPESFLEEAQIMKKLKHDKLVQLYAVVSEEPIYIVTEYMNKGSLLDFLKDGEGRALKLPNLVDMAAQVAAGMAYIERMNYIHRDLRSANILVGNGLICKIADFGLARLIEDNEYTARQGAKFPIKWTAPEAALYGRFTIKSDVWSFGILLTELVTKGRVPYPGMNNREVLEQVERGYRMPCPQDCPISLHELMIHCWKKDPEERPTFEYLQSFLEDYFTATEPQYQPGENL

Row | SMILES | remaining binding at 10 µM (KinomeScan kinase panel [1]; ABL1(Y253F)-phosphorylated) [%] | remaining binding at 10 µM (KinomeScan kinase panel [2]) [%] | remaining binding at 10 µM (KinomeScan kinase panel [3]) [%] | remaining binding at 10 µM (KinomeScan kinase panel [4]; kinase PLK4, 10 µM) [%] | score (%) (KinomeScan kinase panel [5]) | remaining binding at 10 µM (KinomeScan kinase panel [6]) [%] | remaining binding at 10 µM (KinomeScan kinase panel [7]) [%] | remaining binding at 10 µM (KinomeScan kinase panel [1]; ABL1(Y253F)) [%] | remaining binding at 10 µM (KinomeScan kinase panel [4]; PLK4, 10 µM) [%]
1 | CCN1CCN(Cc2ccc(NC(=O)c3ccc(C)c(C#Cc4cccnc4)c3)cc2C(F)(F)F)CC1 [XMD15-44] | 0.15 | 0.5 | 1.8 | 88 | nb (Hits values higher than 30% were considered negative (no binding: nb)) | 1.4 | 0.35 |  | 
2 | CCN1CCN(Cc2ccc(NC(=O)c3ccc(C)c(/C=C/c4cnc5[nH]ccc5c4Cl)c3)cc2C(F)(F)F)CC1 [HG-6-63-01, (E)-3-(2-(4-chloro-1H-pyrrolo[2,3-b]pyridin-5-yl)vinyl)-N-(4-((4-ethylpiperazin-1-yl)methyl)-3-(trifluoromethyl)phenyl)-4-methylbenzamide] |  | 1.6 | > 30 |  | nb (Hits values higher than 30% were considered negative (no binding: nb)) | 0.5 | 2.2 | 0.1 | > 30
3 | CCN1CCN(Cc2ccc(NC(=O)c3ccc(C)c(NC(=O)c4cncc(-c5cccs5)c4)c3)cc2C(F)(F)F)CC1 [ALW-II-41-27] |  | 4.3 | > 30 |  | nb (Hits values higher than 30% were considered negative (no binding: nb)) | 9.1 | 0.25 | 0.2 | > 30
